{"source": "patent US8076348B2", "about": "“Acylguanidine derivative or salt thereof” (Astellas Pharma Inc., priority 2005, dated 2011)", "key": {"human 5-HT7 receptor": {"molecular_target": "T1, human 5-HT7 receptor (Homo sapiens, UniProt P34969)", "T1 construct": "expressed in transfected cells; host or cells: CHO cells (membrane sample)", "T1 sequence (P34969 whole entry)": "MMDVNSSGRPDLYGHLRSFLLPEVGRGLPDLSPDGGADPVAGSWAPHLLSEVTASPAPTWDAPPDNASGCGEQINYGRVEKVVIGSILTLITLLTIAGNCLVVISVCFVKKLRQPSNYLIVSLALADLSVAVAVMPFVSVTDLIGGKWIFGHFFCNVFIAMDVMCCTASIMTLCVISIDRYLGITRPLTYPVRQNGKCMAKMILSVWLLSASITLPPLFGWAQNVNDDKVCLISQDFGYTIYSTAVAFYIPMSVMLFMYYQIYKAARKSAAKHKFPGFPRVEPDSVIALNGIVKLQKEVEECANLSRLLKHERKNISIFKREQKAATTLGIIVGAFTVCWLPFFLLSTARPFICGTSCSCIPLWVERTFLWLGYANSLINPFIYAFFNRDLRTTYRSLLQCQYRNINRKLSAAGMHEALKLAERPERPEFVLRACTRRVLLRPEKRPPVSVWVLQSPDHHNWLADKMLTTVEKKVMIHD", "assay": "5-HT7 receptor binding test", "settings": "[3H] 5-HT, human 5-HT7 receptor expressing CHO cell membrane", "procedure": "Test Method (2) 5-HT7 Receptor Binding Test (i) Membrane Sample Preparation\nCultured human 5-HT7 receptor expressing CHO cells were washed PBS(−). The cells were peeled off using a scraper in the presence of PBS(−), and the cells were recovered by a centrifugal treatment (1,000 rpm, 10 min, 4° C.). In the presence of 5 mM Tris-HCl (pH 7.4) buffer, these were homogenized using a homogenizer (registered trademark: Polytron (PTA 10-TS)) and subjected to a centrifugal treatment (40,000×g, 10 min, 4° C.). In the presence of 50 mM Tris-HCl (pH 7.4) buffer, these were suspended using a glass-Teflon (registered trademark) homogenizer. By carrying out a centrifugal treatment (40,000×g, 10 min, 4° C.), these were suspended in 50 mM Tris-HCl (pH 7.4) and stored at −80° C.\n(§1) (ii) Receptor Binding Test\n(§2) A total volume of 500 μl containing 50 mM Tris-HCl, 4 mM CaCl2 (pH 7.4) buffer, the human 5-HT7 receptor expressing CHO cell membrane sample and a radio ligand [^3H] 5-HT (3.40 TBq/mmol) was incubated at 25° C. for 1 hour. The compound was dissolved in 100% DMSO and diluted to respective concentrations. Nonspecific binding was regarded as the binding quantity in the presence of 10 μM metergoline, and a result of subtracting the nonspecific binding quantity from the total binding quantity was regarded as the specific binding quantity. By adding 4 ml of 50 mM Tris-HCl buffer (pH 7.4), filtered under a reduced pressure trough a GF/B glass filter, and the filter was washed with the same buffer (4 ml×3). The glass filter was soaked in 5 ml of a liquid scintillator (trade name: Aquasol-2), and the radioactivity quantity was measured using a liquid scintillation counter."}, "Hartley male guinea pigs": {"tested_on": "Hartley male guinea pigs", "assay": "Preventive effect in guinea pig migraine model (5-HT-induced dura mater protein leakage)", "type": "in vivo", "settings": "for minimum amount showing the maximum drug efficacy / dose at which the leaked protein quantity-reducing action was shown / lowering of leaked protein quantity to the standard value when the dose was increased: intravenous; for dose at which the leaked protein quantity-reducing action was shown: 5-HT-induced leakage; for lowering of leaked protein quantity to the standard value when the dose was increased: RS-127445 3 to 10 mg/kg, SB-269970 10 to 30 mg/kg", "procedure": "Test Method (5) Preventive Effect in Guinea Pig Migraine Model\nThis test system evaluates the migraine-preventive effect by measuring the amount of this leaked protein in the presence of a compound to be tested and was carried out by partially modifying the method described by Rachel A. Spokes and Vicki C. Middlefell in “European Journal of Pharmacology”, (Holland), 1995, vol. 281, p. 75-79.\nHartley male guinea pigs (250 to 350 g) were anesthetized by the intraperitoneal administration (i.p.) of urethane (1.5 g/kg). By applying a simple canulation to a latent vein, 50 mg/kg of a fluorescent protein (FITC-BSA) was intravenously administered (i.v.) and, 5 minutes thereafter, physiological saline or 1 μmol/ml/kg of 5-HT was intravenously administered. Perfusion was carried out with physiological saline 15 minutes thereafter and blood was washed out. […] By detaching the skull, the dura mater was extracted and incubated in an Eppendorf tube at 37° C. for 16 hours in the presence of physiological saline adjusted to pH 11. By carrying out a centrifugal operation, the supernatant was dispensed into a plate. The fluorescence intensity was measured using a fluorescence plate reader (excitation wavelength 485 nm, […] 530 nm). By weighing the dura mater weight, the fluorescence intensity per mg dura mater protein was calculated.\nThe values of fluorescence intensity measured at the time of the administration and non-administration of each compound are shown in FIG. 4 to FIG. 7."}, "5-HT2B receptor [1]": {"molecular_target": "T2, 5-HT2B receptor (Homo sapiens, UniProt P41595)", "T2 sequence (P41595 whole entry)": "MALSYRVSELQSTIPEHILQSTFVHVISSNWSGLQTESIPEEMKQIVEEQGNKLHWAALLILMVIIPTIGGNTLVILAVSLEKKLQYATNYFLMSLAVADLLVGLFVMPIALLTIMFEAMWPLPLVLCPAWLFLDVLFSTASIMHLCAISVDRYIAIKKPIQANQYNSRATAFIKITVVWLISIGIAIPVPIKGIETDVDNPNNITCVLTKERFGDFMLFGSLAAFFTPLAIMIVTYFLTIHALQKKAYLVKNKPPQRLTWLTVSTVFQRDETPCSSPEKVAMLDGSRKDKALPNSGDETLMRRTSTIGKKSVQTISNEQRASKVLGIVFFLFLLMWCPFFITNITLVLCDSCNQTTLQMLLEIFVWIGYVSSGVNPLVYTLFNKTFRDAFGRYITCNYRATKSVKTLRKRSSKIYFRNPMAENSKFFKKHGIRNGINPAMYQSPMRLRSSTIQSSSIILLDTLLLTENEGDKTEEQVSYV", "assay": "5-HT2B receptor binding test", "design": "expressed in transfected cells; host or cells: HEK293-EBNA cells (membrane sample)", "settings": "[3H] Mesulergine, human 5-HT2B receptor expressing HEK293-EBNA cell membrane", "procedure": "Test Method (1) 5-HT2B Receptor Binding Test\n(i) Membrane Sample Preparation\nCultured human 5-HT2B receptor-expressing HEK293-EBNA cells were washed with a phosphate buffer (PBS)(−). The cells were peeled off using a scraper in the presence of PBS(−), and the cells were recovered by a centrifugal treatment (1,000 rpm, 10 min, 4° C.). In the presence of 5 mM tris-hydrochloric acid (Tris-HCl) (pH 7.4) buffer, these were homogenized using a homogenizer (registered trademark: Polytron (PTA 10-TS)) and subjected to a centrifugal treatment (40,000×g, 10 min, 4° C.). In the presence of 50 mM Tris-HCl (pH 7.4) buffer, these were suspended using a glass-Teflon (registered trademark) homogenizer. By carrying out a centrifugal treatment (40,000×g, 10 min, 4° C.), these were suspended in 50 mM Tris-HCl (pH 7.4) and stored at −80° C.\nas §1\nas §2, with “Tris-HCl, 4-mM-CaCl2” for “Tris-HCl, 4 mM CaCl2”, “human 5-HT2B” for “human 5-HT7”, “expressing HEK293-EBNA” for “expressing CHO”, “[^3H] Mesulergine (3.1 TBq/mmol);” for “[^3H] 5-HT (3.40 TBq/mmol)”, “of 1” for “of 10”, “μM ritanserin,” for “μM metergoline,”"}, "male Wistar rats": {"tested_on": "male Wistar rats", "assay": "Inhibitory effect for defecation at the time of confined stress loading (rat confined stress defecation model)", "type": "in vivo", "settings": "for action to suppress defecation (number of feces): 10 mg/kg p.o., compound used independently, feces counted 1 hour after stress loading, 10 mg/kg; for number of feces, significant difference in comparison with the non-administration group: rat, 1, 3 and 10 mg/kg administration groups, N=10", "procedure": "Test Method (4) Inhibitory Effect for Defecation at the Time of Confined Stress Loading\nThe IBS-treating effect of the compound (I) of the present invention was evaluated using a method in which a confined stress is applied to rats and the evacuation quantity is measured (cf. “The Journal of Pharmacology Experimental Therapeutics”, (USA), 1992, vol. 261, p. 297-303).\nAn agent to be tested was administered to male Wistar rats (body weight 250 to 320 g, 10 animals for each group) and a confined stress was applied thereto 30 minutes thereafter. A confining cage (trade name: KN-468, 265 mm in width×95 mm in length×200 mm in height, Natsume Seisakusho, Tokyo) was used in the confined stress loading, and the number of feces during 1 hour after the stress loading was counted."}, "5-HT2B receptor [2]": {"molecular_target": "T2, 5-HT2B receptor", "settings": "literature value; cited from earlier work"}}}
{"compound": "CC(C)n1c2ccccc2c2ccc(C(=O)N=C(N)N)cc21", "note": "[Example 1, N-(diaminomethylene)-9-isopropyl-9H-carbazole-2-carboxamide]", "values": [{"measurement": "Ki", "setting": "human 5-HT7 receptor", "result": 0.64, "unit": "nM"}, {"measurement": "leaked protein quantity", "setting": "Hartley male guinea pigs; 30 mg/kg oral administration", "result": "almost completely suppressed the leaked protein quantity"}, {"measurement": "Ki", "setting": "5-HT2B receptor [1]", "result": 4.6, "unit": "nM"}]}
{"compound": "CC(C)N1c2ccccc2Oc2ccc(C(=O)N=C(N)N)cc21", "note": "[Example 66, N-(diaminomethylene)-10-isopropyl-10H-phenoxazine-2-carboxamide]", "values": [{"measurement": "Ki", "setting": "human 5-HT7 receptor", "result": 2.6, "unit": "nM"}, {"measurement": "Ki", "setting": "5-HT2B receptor [1]", "result": 0.26, "unit": "nM"}]}
{"compound": "NC(N)=NC(=O)c1ccc2c(c1)C1(SCCS1)c1ccsc1-2", "note": "[Example 81, N-(diaminomethylene)spiro[1,3-dithiolan-2,4′-indeno[1,2-b]thiophene]-6′-carboxamide]", "values": [{"measurement": "Ki", "setting": "human 5-HT7 receptor", "result": 0.78, "unit": "nM"}, {"measurement": "Ki", "setting": "5-HT2B receptor [1]", "result": 0.83, "unit": "nM"}]}
{"compound": "COC1(C)c2cc(C(=O)N=C(N)N)ccc2-c2sccc21", "note": "(centres unmarked) [Example 83]", "values": [{"measurement": "Ki", "setting": "human 5-HT7 receptor", "result": 0.99, "unit": "nM"}, {"measurement": "Ki", "setting": "5-HT2B receptor [1]", "result": 1.5, "unit": "nM"}]}
{"compound": "NC(N)=NC(=O)c1ccc2c(c1)C1(CCCO1)c1ccsc1-2", "note": "(centres unmarked) [Example 84, N-(diaminomethylene)-4,5-dihydro-3H-spiro[furan-2,4′-indeno[1,2-b]thiophene]-6′-carboxamide]", "values": [{"measurement": "Ki", "setting": "human 5-HT7 receptor", "result": 2.5, "unit": "nM"}, {"measurement": "ED50", "setting": "male Wistar rats; po, rat, p.o., read-out: ED50 (50% effective dose), suppressing action on defecation", "result": 0.72, "unit": "mg/kg"}, {"measurement": "Ki", "setting": "5-HT2B receptor [1]", "result": 1.3, "unit": "nM"}]}
{"compound": "CC(C)c1cc(-c2ccc(F)c3ccccc23)nc(N)n1", "note": "[RS-127445, 2-amino-4-(4-fluoronaphth-1-yl)-6-isopropylpyrimidine]", "values": [{"measurement": "action to suppress defecation (number of feces)", "setting": "male Wistar rats; rat", "result": "did not show the action to suppress defecation"}, {"measurement": "number of feces, significant difference in comparison with the non-administration group", "setting": "male Wistar rats", "result": "Significant difference was not found"}, {"measurement": "minimum amount showing the maximum drug efficacy", "setting": "Hartley male guinea pigs", "result": 3, "unit": "mg/kg"}, {"measurement": "dose at which the leaked protein quantity-reducing action was shown", "setting": "Hartley male guinea pigs", "result": 3, "unit": "mg/kg"}, {"measurement": "lowering of leaked protein quantity to the standard value when the dose was increased", "setting": "Hartley male guinea pigs", "result": "did not lower it to the standard value"}, {"measurement": "5-HT2B receptor-selective against 5-HT1A, 5-HT1B, 5-HT2A, 5-HT2C, 5-HT3, 5-HT6, 5-HT7, α1, M1, D2 and the like receptors", "setting": "5-HT2B receptor [2]", "result": "≥ 1000", "unit": "times"}]}
{"compound": "CC1CCN(CC[C@H]2CCCN2S(=O)(=O)c2cccc(O)c2)CC1", "note": "[SB-269970, (R)-3-(2-(2-(4-methylpiperidine-1-yl)ethyl)pyrrolidine-1-sulfonyl)phenol]", "values": [{"measurement": "action to suppress defecation (number of feces)", "setting": "male Wistar rats; rat", "result": "did not show the action to suppress defecation"}, {"measurement": "number of feces, significant difference in comparison with the non-administration group", "setting": "male Wistar rats", "result": "Significant difference was not found"}, {"measurement": "minimum amount showing the maximum drug efficacy", "setting": "Hartley male guinea pigs", "result": 10, "unit": "mg/kg"}, {"measurement": "dose at which the leaked protein quantity-reducing action was shown", "setting": "Hartley male guinea pigs", "result": 10, "unit": "mg/kg"}, {"measurement": "lowering of leaked protein quantity to the standard value when the dose was increased", "setting": "Hartley male guinea pigs", "result": "did not lower the leaked protein quantity to the standard value"}]}
